Source: the NIST ThermoML archive (doi:10.1016/j.jct.2013.03.026)
Numbers after ± are expanded uncertainties.

Assays:
[1] = DTA
[2] = Molar enthalpy of transition or fusion; details: DSC
[3] = molar heat capacity at constant pressure; details: 298.15 K, 101.33 kPa, Drop calorimetry

| SMILES | Triple point temperature ([1]; Crystal) | Molar enthalpy of transition or fusion ([2]; Crystal) | molar heat capacity at constant pressure ([3]; Crystal) | also measured |
| --- | --- | --- | --- | --- |
| c1ccc(-c2cccc(-c3cccc(-c4cccc(-c5ccccc5)c4)c3)c2)cc1 [1,1':3',1'':3'',1'':3'',1''''-quinquephenyl] | 387.1 ± 0.4 K | 7.46 ± 0.191 kcal/mol | 443.7 ± 10 J/K/mol |  |
| c1ccc(-c2ccc(-c3ccc(-c4ccccc4)cc3)cc2)cc1 [1,1':4',1'':4'',1'''-quaterphenyl] | 594.4 ± 0.6 K | 12.8 ± 0.359 kcal/mol |  |  |
| c1ccc(-c2ccc(-c3ccc(-c4ccc(-c5ccccc5)cc4)cc3)cc2)cc1 [1,1':4',1'':4'',1''':4''',1''''-quinquephenyl] |  |  |  | Triple point temperature ([1]; Crystal 1): 663.4 ± 3.9 K; Triple point temperature ([1]; Crystal 2): 642.2 ± 3.9 K; Triple point temperature ([1]; Nematic liquid crystal): 696 ± 3.9 K; Molar enthalpy of transition or fusion ([2]; Crystal 1): 11.7 ± 0.956 kcal/mol; Molar enthalpy of transition or fusion ([2]; Crystal 2): 0.12 ± 0.0717 kcal/mol; Molar enthalpy of transition or fusion ([2]; Nematic liquid crystal): 0.382 ± 0.0956 kcal/mol; molar heat capacity at constant pressure ([3]; Crystal 2): 455.5 ± 11 J/K/mol |
| c1ccc(-c2cccc(-c3ccccc3)c2)cc1 [m-terphenyl] | 361.8 ± 0.7 K | 6.09 ± 0.167 kcal/mol |  |  |
| c1ccc(-c2cccc(-c3cccc(-c4ccccc4)c3)c2)cc1 [metaquaterphenyl] | 360 ± 0.4 K | 6.62 ± 0.191 kcal/mol | 359.5 ± 8.4 J/K/mol |  |
| c1ccc(-c2ccccc2-c2ccccc2-c2ccccc2)cc1 [o-quaterphenyl] | 390.6 ± 0.5 K | 6.5 ± 0.167 kcal/mol | 359.1 ± 8.3 J/K/mol |  |
| c1ccc(-c2ccccc2-c2ccccc2-c2ccccc2-c2ccccc2)cc1 [o-quinquephenyl] | 428.8 ± 0.5 K | 7.74 ± 0.191 kcal/mol | 444.3 ± 10 J/K/mol |  |
| c1ccc(-c2ccccc2-c2ccccc2)cc1 [o-terphenyl] | 329.4 ± 0.4 K | 4.06 ± 0.12 kcal/mol |  |  |
| c1ccc(-c2ccc(-c3ccccc3)cc2)cc1 [p-terphenyl] | 490.9 ± 0.6 K | 7.86 ± 0.215 kcal/mol |  |  |
